This is an account of results in patent US20100048597A1 (Novartis AG, priority 2006, published 2010).

Type in all cases: biochemical
The target of assay [1] is T1, CDK9/cyclinT1 (Homo sapiens, UniProt P50750).
T1 construct: purchased Millipore
Nature of the assay: CDK9/cyclinT1 kinase assay, IMAP fluorescence polarization. The method, then: (§1) Kinase assays were performed on recombinant purified enzymes using the non-radioactive IMAP fluorescence polarization assay format.
(§2) Compound stocks were prepared and diluted in DMSO and were added to kinase reactions at a 1/100 dilution for a final concentration of 1% DMSO. The components were added together to final concentrations listed in the tables below and incubated for two hours at room temperature.
(§3) The reactions were stopped by addition of stop solution.
CDK9/CDK1/CDK7: final stop concentration is 1× Developer buffer (85% A/15% B), IMAP beads 1/400
(§4) The samples were allowed to incubate for one more hour at room temperature and then the fluorescence polarization was measured. The plate normalized millipolarization (mP) values were plotted against the log of compound concentration for each compound and IC50 values were calculated using the spotfire IC50 calculator and confirmed by visual analysis.

The target of assay [2] is T2, CDK1/cyclinB (Homo sapiens, UniProt P06493).
T2 construct: purchased Millipore
Nature of the assay: CDK1/cyclinB kinase assay, IMAP fluorescence polarization. The following applies: read-out: CDK1 IC50. The method, then:
as §1, §2, §3
The samples were allowed to incubate for one more hour at room temperature and then the fluorescence polarization was measured.
For orientation: Fluorescence polarisation rises when a labelled molecule tumbles more slowly, as on binding a larger partner.

The target of assay [3] is T3, CDK2/cyclinA (Homo sapiens, UniProt P24941).
T3 construct: purchased Millipore
Kind of assay: CDK2/cyclinA kinase assay, IMAP fluorescence polarization. The method, then:
as §1, §2, §3
CDK2: final stop concentration is 1× Developer buffer (100% A), IMAP beads 1/400
as §4

Assay [4] has as its target CDK4 (Homo sapiens, UniProt P11802). Nature of the assay: CDK4 kinase assay (Table F).
Assay [5] addresses CDK5 (Homo sapiens, UniProt Q00535). Nature of the assay: CDK5 kinase assay (Table F).

T1 sequence (P50750 whole entry): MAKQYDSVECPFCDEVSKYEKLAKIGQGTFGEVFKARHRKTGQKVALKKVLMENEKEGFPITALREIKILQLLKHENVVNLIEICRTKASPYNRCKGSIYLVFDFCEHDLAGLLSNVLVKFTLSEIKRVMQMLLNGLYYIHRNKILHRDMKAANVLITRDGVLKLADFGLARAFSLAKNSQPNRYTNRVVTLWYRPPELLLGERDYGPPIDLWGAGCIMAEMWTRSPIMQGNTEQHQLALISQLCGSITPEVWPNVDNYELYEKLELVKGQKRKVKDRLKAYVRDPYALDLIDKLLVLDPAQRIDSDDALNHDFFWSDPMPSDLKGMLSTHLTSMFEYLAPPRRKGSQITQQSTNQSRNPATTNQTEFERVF
T1 sequence (O60563 whole entry partner): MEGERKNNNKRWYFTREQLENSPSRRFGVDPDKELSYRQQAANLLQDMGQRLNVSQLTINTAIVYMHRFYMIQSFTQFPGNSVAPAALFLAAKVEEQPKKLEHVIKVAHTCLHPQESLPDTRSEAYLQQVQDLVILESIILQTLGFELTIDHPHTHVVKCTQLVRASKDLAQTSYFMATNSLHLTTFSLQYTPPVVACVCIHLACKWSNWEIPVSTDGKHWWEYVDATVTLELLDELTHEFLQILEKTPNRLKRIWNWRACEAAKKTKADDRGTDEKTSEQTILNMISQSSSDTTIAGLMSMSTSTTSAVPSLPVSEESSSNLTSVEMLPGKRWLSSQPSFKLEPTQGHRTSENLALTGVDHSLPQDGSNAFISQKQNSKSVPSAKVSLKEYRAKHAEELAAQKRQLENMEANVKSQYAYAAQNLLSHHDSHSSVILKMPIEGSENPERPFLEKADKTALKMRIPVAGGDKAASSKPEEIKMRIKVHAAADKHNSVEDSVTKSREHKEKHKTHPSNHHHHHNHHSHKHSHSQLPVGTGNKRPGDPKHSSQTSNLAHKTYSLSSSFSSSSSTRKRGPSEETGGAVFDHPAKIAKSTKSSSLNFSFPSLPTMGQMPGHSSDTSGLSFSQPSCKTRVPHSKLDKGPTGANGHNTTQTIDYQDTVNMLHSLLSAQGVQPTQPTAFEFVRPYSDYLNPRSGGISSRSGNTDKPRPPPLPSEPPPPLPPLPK
CDK4, sequence (P11802 whole entry, species assumed): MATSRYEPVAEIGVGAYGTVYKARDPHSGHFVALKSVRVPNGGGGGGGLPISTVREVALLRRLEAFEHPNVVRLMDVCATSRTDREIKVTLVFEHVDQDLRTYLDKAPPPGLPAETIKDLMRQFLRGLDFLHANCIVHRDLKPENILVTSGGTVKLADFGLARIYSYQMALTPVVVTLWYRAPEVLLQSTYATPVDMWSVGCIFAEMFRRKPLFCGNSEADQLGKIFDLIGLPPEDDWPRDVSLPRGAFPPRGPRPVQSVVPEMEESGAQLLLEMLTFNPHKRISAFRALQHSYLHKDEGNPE
CDK4, sequence (P24385 whole entry partner, species assumed): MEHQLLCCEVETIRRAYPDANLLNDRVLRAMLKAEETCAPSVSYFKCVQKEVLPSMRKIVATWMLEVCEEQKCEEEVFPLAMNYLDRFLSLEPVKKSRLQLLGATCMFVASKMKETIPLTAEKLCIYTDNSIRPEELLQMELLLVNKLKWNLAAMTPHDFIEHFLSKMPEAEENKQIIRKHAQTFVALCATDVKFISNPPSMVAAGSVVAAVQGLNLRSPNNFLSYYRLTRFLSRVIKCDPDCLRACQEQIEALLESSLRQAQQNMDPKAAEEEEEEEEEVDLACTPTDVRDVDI
CDK5, sequence (Q00535 whole entry, species assumed): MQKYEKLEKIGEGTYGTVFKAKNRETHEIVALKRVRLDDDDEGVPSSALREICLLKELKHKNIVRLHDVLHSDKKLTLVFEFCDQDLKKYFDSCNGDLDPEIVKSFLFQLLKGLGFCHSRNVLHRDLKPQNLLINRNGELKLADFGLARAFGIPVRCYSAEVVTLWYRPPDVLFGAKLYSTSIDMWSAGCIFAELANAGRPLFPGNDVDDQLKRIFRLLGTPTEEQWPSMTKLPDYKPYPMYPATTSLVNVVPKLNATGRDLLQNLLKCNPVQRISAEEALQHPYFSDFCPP
CDK5, sequence (Q15078 whole entry partner, species assumed): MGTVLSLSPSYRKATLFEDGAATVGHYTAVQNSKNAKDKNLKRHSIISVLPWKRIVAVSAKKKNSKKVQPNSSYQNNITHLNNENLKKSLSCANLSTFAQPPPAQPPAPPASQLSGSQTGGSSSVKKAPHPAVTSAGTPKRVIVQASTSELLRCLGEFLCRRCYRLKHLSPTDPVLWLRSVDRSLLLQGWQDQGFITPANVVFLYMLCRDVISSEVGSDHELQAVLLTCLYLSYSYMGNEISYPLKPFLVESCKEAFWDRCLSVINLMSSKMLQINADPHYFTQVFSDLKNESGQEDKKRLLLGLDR
T2 sequence (P06493 whole entry): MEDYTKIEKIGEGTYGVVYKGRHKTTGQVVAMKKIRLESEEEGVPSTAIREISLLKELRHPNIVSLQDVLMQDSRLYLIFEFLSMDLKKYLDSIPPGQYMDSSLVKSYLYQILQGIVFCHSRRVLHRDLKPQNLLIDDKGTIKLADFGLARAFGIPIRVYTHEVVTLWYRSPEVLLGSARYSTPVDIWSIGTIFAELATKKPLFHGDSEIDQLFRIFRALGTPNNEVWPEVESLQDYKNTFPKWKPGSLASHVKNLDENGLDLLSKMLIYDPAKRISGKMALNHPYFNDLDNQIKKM
T2 sequence (P14635 whole entry partner): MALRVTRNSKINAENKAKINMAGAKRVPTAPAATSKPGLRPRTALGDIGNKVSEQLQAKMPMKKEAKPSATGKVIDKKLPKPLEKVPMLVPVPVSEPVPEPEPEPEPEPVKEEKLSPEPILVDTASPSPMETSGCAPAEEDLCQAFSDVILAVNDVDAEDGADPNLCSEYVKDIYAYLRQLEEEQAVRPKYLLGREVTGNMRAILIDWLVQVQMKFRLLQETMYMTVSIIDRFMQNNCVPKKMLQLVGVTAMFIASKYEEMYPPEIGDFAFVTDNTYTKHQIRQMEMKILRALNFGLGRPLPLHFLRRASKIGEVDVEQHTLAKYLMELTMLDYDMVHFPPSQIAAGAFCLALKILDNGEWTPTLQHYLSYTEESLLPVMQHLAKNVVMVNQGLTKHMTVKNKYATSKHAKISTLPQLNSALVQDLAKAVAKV

On to `Cc1cnccc1-c1ccnc(Nc2cccc(Cl)c2)n1` [Compound 44, (3-Chloro-phenyl)-[4-(3-methyl-pyridin-4-yl)-pyrimidin-2-yl]-amine], for which the IC50 (as a rule, the concentration that gives 50% inhibition) in assay [1] is below 5 µM; in assay [2], below 5 µM; in assay [3], below 5 µM; in assay [4], 15 to 50 µM; in assay [5], below 5 µM.
As to `COc1cnccc1-c1nc(Nc2cccc(S(N)(=O)=O)c2)ncc1C` [Compound 47, 3-[4-(3-Methoxy-pyridin-4-yl)-5-methyl-pyrimidin-2-ylamino]-benzenesulfonamide], the IC50 in assay [1] is below 5 µM; in assay [2], 5 to 15 µM; in assay [3], below 5 µM; in assay [4], below 5 µM; in assay [5], below 5 µM.
In the case of `CN(C)CCCNc1ncccc1-c1ccnc(Nc2cccc(Cl)c2)n1` [Compound 63, N-{3-[2-(3-Chloro-phenylamino)-pyrimidin-4-yl]-pyridin-2-yl}-N′,N′-dimethyl-propane-1,3-diamine], the IC50 is below 5 µM in assay [1]; below 5 µM in assay [2]; below 5 µM in assay [3]; 5 to 15 µM in assay [4]; below 5 µM in assay [5].
`CC(C)NCCCNc1ncccc1-c1ccnc(Nc2cccc(Cl)c2)n1` [Compound 64, N-{3-[2-(3-Chloro-phenylamino)-pyrimidin-4-yl]-pyridin-2-yl}-N′-isopropyl-propane-1,3-diamine]: the concentration for half-maximal inhibition (IC50) is below 5 µM in assay [1]; below 5 µM in assay [2]; below 5 µM in assay [3]; 5 to 15 µM in assay [4]; below 5 µM in assay [5].
For `CC(=O)NCCCNc1ncccc1-c1ccnc(Nc2cccc(S(C)(=O)=O)c2)n1` [Compound 67, N-(3-{3-[2-(3-Methanesulfonyl-phenylamino)-pyrimidin-4-yl]-pyridin-2-ylamino}-propyl)-acetamide], the IC50 in assay [1] was below 5 µM; in assay [2], above 50 µM; in assay [3], 5 to 15 µM; in assay [4], 15 to 50 µM; in assay [5], 5 to 15 µM.
`CC(=O)NCCCNc1ncccc1-c1ccnc(Nc2cccc(S(N)(=O)=O)c2)n1` [Compound 68, N-(3-{3-[2-(3-Sulfamoyl-phenylamino)-pyrimidin-4-yl]-pyridin-2-ylamino}-propyl)-acetamide]: the IC50 is below 5 µM in assay [1]; below 5 µM in assay [2]; below 5 µM in assay [3]; 15 to 50 µM in assay [4]; below 5 µM in assay [5].
For the compound `CC(=O)NCCCNc1ncccc1-c1ccnc(Nc2cccc(C#N)c2)n1` [Compound 69, N-(3-{3-[2-(3-Cyano-phenylamino)-pyrimidin-4-yl]-pyridin-2-ylamino}-propyl)-acetamide], the half-inhibitory concentration (IC50) is below 5 µM in assay [1]; below 5 µM in assay [2]; below 5 µM in assay [3]; 15 to 50 µM in assay [4]; below 5 µM in assay [5].
Regarding `Clc1cccc(Nc2nccc(-c3cccnc3NCCc3c[nH]cn3)n2)c1` [Compound 79], the IC50 in assay [1] is below 5 µM; in assay [2] it was below 5 µM; in assay [3], below 5 µM; in assay [4], 15 to 50 µM; in assay [5] it was below 5 µM.
As to `NS(=O)(=O)c1cccc(Nc2nccc(-c3cccnc3NCCCn3ccnc3)n2)c1` [Compound 83, 3-{4-[2-(3-Imidazol-1-yl-propylamino)-pyridin-3-yl]-pyrimidin-2-ylamino}-benzenesulfonamide], the IC50 was below 5 µM in assay [1]; below 5 µM in assay [2]; below 5 µM in assay [3]; 15 to 50 µM in assay [4]; below 5 µM in assay [5].
With `COc1ncccc1-c1ccnc(Nc2cccc(C(=O)NCCN(C)C)c2)n1` [Compound 97, N-(2-Dimethylamino-ethyl)-3-[4-(2-methoxy-pyridin-3-yl)-pyrimidin-2-ylamino]-benzamide], the IC50 in assay [1] was below 5 µM; in assay [2], 5 to 15 µM; in assay [3], 5 to 15 µM.
In the case of `COc1ncccc1-c1ccnc(Nc2cccc(NC(C)=O)c2)n1` [Compound 98, N-{3-[4-(2-Methoxy-pyridin-3-yl)-pyrimidin-2-ylamino]-phenyl}-acetamide], the IC50 in assay [1], in assay [2] and in assay [3] was below 5 µM each time.
`CNS(=O)(=O)c1cccc(Nc2nccc(-c3cccnc3OC)n2)c1` [Compound 100, 3-[4-(2-Methoxy-pyridin-3-yl)-pyrimidin-2-ylamino]-N-methyl-benzenesulfonamide]: the IC50 in assay [1], in assay [2] and in assay [3] was below 5 µM each time.
Regarding `CCNS(=O)(=O)c1cccc(Nc2nccc(-c3cccnc3OC)n2)c1` [Compound 101, N-Ethyl-3-[4-(2-methoxy-pyridin-3-yl)-pyrimidin-2-ylamino]-benzenesulfonamide], the IC50 in assay [1] was below 5 µM; in assay [2] it was above 50 µM; in assay [3], below 5 µM.
Consider `COc1ncccc1-c1ccnc(Nc2cccc(S(=O)(=O)NCCO)c2)n1` [Compound 103, N-(2-Hydroxy-ethyl)-3-[4-(2-methoxy-pyridin-3-yl)-pyrimidin-2-ylamino]-benzenesulfonamide], for which the IC50 in assay [1], in assay [2] and in assay [3] was below 5 µM each time.
On to `COc1ncccc1-c1ccnc(Nc2cccc(S(=O)(=O)NC3CCCCC3)c2)n1` [Compound 104, N-Cyclohexyl-3-[4-(2-methoxy-pyridin-3-yl)-pyrimidin-2-ylamino]-benzenesulfonamide], for which the IC50 in assay [1], in assay [2] and in assay [3] was above 50 µM each time.
Turning to `CCN(CC)S(=O)(=O)c1cccc(Nc2nccc(-c3cccnc3OC)n2)c1` [Compound 105, N,N-Diethyl-3-[4-(2-methoxy-pyridin-3-yl)-pyrimidin-2-ylamino]-benzenesulfonamide], the IC50 in assay [1] was above 50 µM; in assay [2], above 50 µM; in assay [3], above 50 µM; in assay [4], 15 to 50 µM; in assay [5] it was 5 to 15 µM.
`COc1ncccc1-c1ccnc(Nc2cccc(N3CCCC3)c2)n1` [Compound 106, [4-(2-Methoxy-pyridin-3-yl)-pyrimidin-2-yl]-(3-pyrrolidin-1-yl-phenyl)-amine]: the half-maximal inhibitory concentration (IC50) in assay [1] is below 5 µM; in assay [2], 5 to 15 µM; in assay [3], 15 to 50 µM.
In the same order, the values of `COc1ncccc1-c1ccnc(Nc2cccc(S(=O)(=O)N3CCCCC3)c2)n1` [Compound 107, [4-(2-Methoxy-pyridin-3-yl)-pyrimidin-2-yl]-[3-(piperidine-1-sulfonyl)-phenyl]-amine] are below 5 µM, 5 to 15 µM and below 5 µM.
With `CCOC(=O)c1cccc(Nc2nccc(-c3cccnc3OC)n2)c1` [Compound 108, 3-[4-(2-Methoxy-pyridin-3-yl)-pyrimidin-2-ylamino]-benzoic acid ethyl ester], the IC50 in assay [1], in assay [2] and in assay [3] was below 5 µM throughout.
On to `COc1ncccc1-c1ccnc(Nc2cccc(C(=O)OC(C)(C)C)c2)n1` [Compound 109, 3-[4-(2-Methoxy-pyridin-3-yl)-pyrimidin-2-ylamino]-benzoic acid tert-butyl ester], for which the results for the IC50 in assay [1], in assay [2] and in assay [3] were below 5 µM, above 50 µM and below 5 µM, respectively.
For `COc1ncccc1-c1ccnc(Nc2cccc(-c3nncn3C)c2)n1` [Compound 111, [4-(2-Methoxy-pyridin-3-yl)-pyrimidin-2-yl]-[3-(4-methyl-4H-[1,2,4]triazo1-3-yl)-phenyl]-amine], the results for the IC50 in assay [1], in assay [2] and in assay [3] were below 5 µM, 5 to 15 µM and below 5 µM, respectively.
Consider `COc1ncccc1-c1ccnc(Nc2cccc(C3CCNCC3)c2)n1` [Compound 113, [4-(2-Methoxy-pyridin-3-yl)-pyrimidin-2-yl]-(3-piperidin-4-yl-phenyl)-amine], for which the IC50 in assay [1], in assay [2] and in assay [3] was below 5 µM throughout.
For `COc1ncccc1-c1ccnc(Nc2cccc(C3CCN(C(=O)OC(C)(C)C)CC3)c2)n1` [Compound 114, 4-{3-[4-(2-Methoxy-pyridin-3-yl)-pyrimidin-2-ylamino]-phenyl}-piperidine-1-carboxylic acid tert-butyl ester], the IC50 in assay [1], in assay [2] and in assay [3] was above 50 µM each time.
`COc1ncccc1-c1ccnc(Nc2cccc(-c3ccccc3)c2)n1` [Compound 115, Biphenyl-3-yl-[4-(2-methoxy-pyridin-3-yl)-pyrimidin-2-yl]-amine]: the concentration for half-maximal inhibition (IC50) was below 5 µM in assay [1], above 50 µM in assay [2] and above 50 µM in assay [3].
Turning to `COc1ncccc1-c1ccnc(Nc2ccc([N+](=O)[O-])cc2)n1` [Compound 116, [4-(2-Methoxy-pyridin-3-yl)-pyrimidin-2-yl]-(4-nitro-phenyl)-amine], the IC50 in assay [1], in assay [2] and in assay [3] was above 50 µM each time.
